# Data reported in patent US10730863B2, “Bridged bicyclic compounds as farnesoid X receptor modulators” (BRISTOL-MYERS SQUIBB COMPANY, priority 2017, dated 2020).
# Biological target: FXR (Homo sapiens (Human), UniProt Q96RI1)
# Assay: FXR EC50 (FXR agonist activity reported with each example)
# Format: cell-based
# Sequence of FXR (Q96RI1 262-486): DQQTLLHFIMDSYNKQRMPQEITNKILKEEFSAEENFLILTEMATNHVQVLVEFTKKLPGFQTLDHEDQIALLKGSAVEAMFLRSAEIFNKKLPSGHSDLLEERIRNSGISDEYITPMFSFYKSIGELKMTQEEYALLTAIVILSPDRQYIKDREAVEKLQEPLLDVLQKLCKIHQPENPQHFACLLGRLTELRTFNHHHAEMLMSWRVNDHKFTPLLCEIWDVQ
row,Compound,EC50 [nM]
1,COC(=O)c1cccc(NC(=O)C23CCC(C=Cc4c(-c5c(Cl)cccc5Cl)noc4C4CC4)(CC2)CC3)c1 [Example 187],3000
2,O=C(O)c1cccc(NC(=O)C23CCC(C=Cc4c(-c5c(Cl)cccc5Cl)noc4C4CC4)(CC2)CC3)c1 [Example 188],120
3,O=C(O)c1cccc2nc(C34CCC(C=Cc5c(-c6c(Cl)cccc6Cl)noc5C5CC5)(CC3)CC4)sc12 [Example 189],63
4,O=C(O)c1cccc(NC(=O)C23CCC(C=Cc4c(-c5c(Cl)cccc5Cl)noc4C4CC4)(CC2)CC3)c1 [Example 190],3500
5,O=C(O)c1cc(F)c2nc(OCC34CCC(C=Cc5c(-c6c(Cl)cccc6Cl)noc5C5CC5)(CC3)CC4)sc2c1 [Example 191],58
6,O=C(O)c1ccc2nc(OCC34CCC(C=Cc5c(-c6c(Cl)cccc6Cl)noc5C5CC5)(CC3)CC4)sc2c1 [Example 192],7.2
7,"O=C(O)c1cccc(-c2noc(C34CCC(OCc5c(-c6c(Cl)cccc6Cl)noc5C5CC5)(CC3)CO4)n2)c1 [Example 193, 3-(5-(4-((5-cyclopropyl-3-(2,6-dichlorophenyl)isoxazol-4-yl)methoxy)-2-oxabicyclo[2.2.2]octan-1-yl)-1,2,4-oxadiazol-3-yl)benzoic acid]",26
8,"O=C(O)c1ccc(C23CCC(/C=C/c4c(-c5c(Cl)cccc5Cl)noc4C4CC4)(CC2)CO3)cc1 [Example 194, (E)-4-(4-(2-(5-cyclopropyl-3-(2,6-dichlorophenyl)isoxazol-4-yl)vinyl)-2-oxabicyclo[2.2.2]octan-1-yl)benzoic acid]",34
9,"O=C(O)c1cccc(C23CCC(COCc4c(-c5c(Cl)cccc5Cl)noc4C4CC4)(CC2)CO3)c1 [Example 195, 3-(4-(((5-cyclopropyl-3-(2,6-dichlorophenyl)isoxazol-4-yl)methoxy)methyl)-2-oxabicyclo[2.2.2]octan-1-yl)benzoic acid]",47
10,O=C(O)c1ccc(-c2noc(C34CCC(OCc5c(-c6c(Cl)cccc6Cl)noc5C5CC5)(CC3)CO4)n2)cc1 [Example 196],83
11,"O=C(O)c1cccc(/C=C/C23CCC(COCc4c(-c5ccccc5OC(F)(F)F)noc4C4CC4)(CC2)CO3)c1 [Example 197, (E)-3-(2-(4-(((5-cyclopropyl-3-(2-(trifluoromethoxy)phenyl)isoxazol-4-yl)methoxy)methyl)-2-oxabicyclo[2.2.2]octan-1-yl)vinyl)benzoic acid]",90
12,O=C(O)c1cc(-c2noc(C34CCC(OCc5c(-c6c(Cl)cccc6Cl)noc5C5CC5)(CC3)CO4)n2)ccc1F [Example 198],98
13,O=C(O)c1cccc(-c2noc(C34CCC(OCc5c(-c6ccccc6OC(F)(F)F)noc5C5CC5)(CC3)CO4)n2)c1 [Example 199],220
14,O=C(O)c1cccc(/C=C/C23CCC(COCc4c(-c5c(Cl)cccc5Cl)noc4C4CC4)(CC2)CO3)c1 [Example 200],220
15,O=C(O)c1ccc(C23CCC(COCc4c(-c5c(Cl)cccc5Cl)noc4C4CC4)(CC2)CO3)cc1 [Example 201],270
16,O=C(O)c1cc(C23CCC(COCc4c(-c5c(Cl)cccc5Cl)noc4C4CC4)(CC2)CO3)ccc1F [Example 202],390
17,"O=C(O)c1ccc(C23CCC(CNc4c(-c5c(Cl)cccc5Cl)noc4C4CC4)(CC2)CO3)cc1 [Example 203, 4-(4-(((5-cyclopropyl-3-(2,6-dichlorophenyl)isoxazol-4-yl)amino)methyl)-2-oxabicyclo[2.2.2]octan-1-yl)benzoic acid]",420
18,O=C(O)c1cccc(C23CCC(COCc4c(-c5ccccc5OC(F)(F)F)noc4C4CC4)(CC2)CO3)c1 [Example 204],440
19,O=C(O)c1ccc(C23CCC(COCc4c(-c5ccccc5OC(F)(F)F)noc4C4CC4)(CC2)CO3)cc1 [Example 205],450
20,O=C(O)c1cccc(-c2noc(C34CCC(OCc5c(-c6c(Cl)cncc6Cl)noc5C5CC5)(CC3)CO4)n2)c1 [Example 206],490
21,O=C(O)c1cc(C23CCC(COCc4c(-c5ccccc5OC(F)(F)F)noc4C4CC4)(CC2)CO3)ccc1F [Example 207],570
22,"NC(=O)c1ccc(C23CCC(CNc4c(-c5c(Cl)cccc5Cl)noc4C4CC4)(CC2)CO3)cc1 [Example 208, 4-(4-(((5-cyclopropyl-3-(2,6-dichlorophenyl)isoxazol-4-yl)amino)methyl)-2-oxabicyclo[2.2.2]octan-1-yl)benzamide]",710

row,Compound,EC50 [nM]
1,"O=C(O)c1ccc(-c2noc(C34CCC(COCc5c(-c6ccccc6OC(F)(F)F)noc5C5CC5)(CC3)CO4)n2)cc1 [Example 209, 4-(5-(4-(((5-cyclopropyl-3-(2-(trifluoromethoxy)phenyl)isoxazol-4-yl)methoxy)methyl)-2-oxabicyclo[2.2.2]octan-1-yl)-1,2,4-oxadiazol-3-yl)benzoic acid]",470
2,"O=C(O)c1cccc(-c2noc(C34CCC(COCc5c(-c6c(Cl)cccc6Cl)noc5C5CC5)(CC3)CO4)n2)c1 [Example 210, 3-(5-(4-(((5-cyclopropyl-3-(2,6-dichlorophenyl)isoxazol-4-yl)methoxy)methyl)-2-oxabicyclo[2.2.2]octan-1-yl)-1,2,4-oxadiazol-3-yl)benzoic acid]",960
3,O=C(O)c1ccc(-c2noc(C34CCC(COCc5c(-c6c(Cl)cccc6Cl)noc5C5CC5)(CC3)CO4)n2)cc1 [Example 211],980
4,O=C(O)c1ccc(-c2noc(C34CCC(OCc5c(-c6ccccc6OC(F)(F)F)noc5C5CC5)(CC3)CO4)n2)cc1 [Example 212],1000
5,O=C(O)c1cccc(-c2noc(C34CCC(COCc5c(-c6ccccc6OC(F)(F)F)noc5C5CC5)(CC3)CO4)n2)c1 [Example 213],1200
6,O=C(O)c1csc(C23CCC(COCc4c(-c5ccccc5OC(F)(F)F)noc4C4CC4)(CC2)CO3)n1 [Example 214],1400
7,CS(=O)(=O)NC(=O)c1cccc(C23CCC(COCc4c(-c5c(Cl)cccc5Cl)noc4C4CC4)(CC2)CO3)c1 [Example 215],1600
8,O=C(O)c1csc(C23CCC(COCc4c(-c5c(Cl)cccc5Cl)noc4C4CC4)(CC2)CO3)n1 [Example 216],2000
9,O=C(O)c1ccc(-c2noc(C34CCC(OCc5c(-c6c(Cl)cncc6Cl)noc5C5CC5)(CC3)CO4)n2)cc1 [Example 218],160
10,"O=C(O)c1cc(F)cc(-c2noc(C34CCC(OCc5c(-c6c(Cl)cccc6Cl)noc5C5CC5)(CC3)CO4)n2)c1 [Example 219, 3-(5-(4-((5-cyclopropyl-3-(2,6-dichlorophenyl)isoxazol-4-yl)methoxy)-2-oxabicyclo[2.2.2]octan-1-yl)-1,2,4-oxadiazol-3-yl)-5-fluorobenzoic acid]",300
11,"Clc1cccc(Cl)c1-c1noc(C2CC2)c1COCC12CCC(c3cccc(-c4nnn[nH]4)c3)(CC1)OC2 [Example 220, 4-(((1-(3-(1H-tetrazol-5-yl)phenyl)-2-oxabicyclo[2.2.2]octan-4-yl)methoxy)methyl)-5-cyclopropyl-3-(2,6-dichlorophenyl)isoxazole]",870
12,"O=C(O)c1cccc(-c2noc(C34CCC(OCc5c(-c6c(Cl)cccc6Cl)noc5C5CC5)(CC3)C4)n2)c1 [Example 221, 3-(5-((1r,4r)-4-((5-cyclopropyl-3-(2,6-dichlorophenyl)isoxazol-4-yl)methoxy)bicyclo[2.2.1]heptan-1-yl)-1,2,4-oxadiazol-3-yl)benzoic acid]",300
13,"O=C(O)c1ccc(-c2noc(C34CCC(C=Cc5c(-c6c(Cl)cccc6Cl)noc5C5CC5)(CC3)C4)n2)cc1 [Example 226, 4-(5-(4-(2-(5-cyclopropyl-3-(2,6-dichlorophenyl)isoxazol-4-yl)vinyl)bicyclo[2.2.1]heptan-1-yl)-1,2,4-oxadiazol-3-yl)benzoic acid]",420
14,COC(=O)c1cccc(NC(=O)C23CCC(C=Cc4c(-c5c(Cl)cccc5Cl)noc4C4CC4)(CC2)C3)c1 [Example 229],3600
15,O=C(O)c1cccc(NC(=O)C23CCC(C=Cc4c(-c5c(Cl)cccc5Cl)noc4C4CC4)(CC2)C3)c1 [Example 230],890
16,"O=C(O)c1cc(F)c2nc(C34CCC(OCc5c(-c6c(Cl)cncc6Cl)noc5C5CC5)(CC3)CC4)sc2c1 [Example 231, 2-(4-((5-cyclopropyl-3-(3,5-dichloropyridin-4-yl)isoxazol-4-yl)methoxy)bicyclo[2.2.2]octan-1-yl)-4-fluorobenzo[d]thiazole-6-carboxylic acid]",53
17,"O=C(O)c1cccc(-c2noc(C34CCC(OCc5c(-c6c(Cl)cncc6Cl)noc5C5CC5)(CC3)CC4)n2)c1 [Example 232, 3-(5-(4-((5-cyclopropyl-3-(3,5-dichloropyridin-4-yl)isoxazol-4-yl)methoxy)bicyclo[2.2.2]octan-1-yl)-1,2,4-oxadiazol-3-yl)benzoic acid]",100
18,"O=C(O)c1cc(-c2noc(C34CCC(OCc5c(-c6c(Cl)cncc6Cl)noc5C5CC5)(CC3)CC4)n2)ccc1F [Example 233, 5-(5-(4-((5-cyclopropyl-3-(3,5-dichloropyridin-4-yl)isoxazol-4-yl)methoxy)bicyclo[2.2.2]octan-1-yl)-1,2,4-oxadiazol-3-yl)-2-fluorobenzoic acid]",92
19,"COc1ccc(-c2nc(C34CCC(OCc5c(-c6c(Cl)cncc6Cl)noc5C5CC5)(CC3)CC4)no2)cc1C(=O)O [Example 234, 5-(3-(4-((5-cyclopropyl-3-(3,5-dichloropyridin-4-yl)isoxazol-4-yl)methoxy)bicyclo[2.2.2]octan-1-yl)-1,2,4-oxadiazol-5-yl)-2-methoxybenzoic acid]",190
20,"O=C(O)c1cc(-c2noc(C34CCC(OCc5c(-c6c(Cl)cncc6Cl)noc5C5CC5)(CC3)CC4)n2)cc(C(F)(F)F)c1 [Example 235, 3-(5-(4-((5-cyclopropyl-3-(3,5-dichloropyridin-4-yl)isoxazol-4-yl)methoxy)bicyclo[2.2.2]octan-1-yl)-1,2,4-oxadiazol-3-yl)-5-(trifluoromethyl)benzoic acid]",25
21,"COc1ccc(-c2noc(C34CCC(OCc5c(-c6c(Cl)cncc6Cl)noc5C5CC5)(CC3)CC4)n2)cc1C(=O)NS(C)(=O)=O [Example 236, 5-(5-(4-((5-cyclopropyl-3-(3,5-dichloropyridin-4-yl)isoxazol-4-yl)methoxy)bicyclo[2.2.2]octan-1-yl)-1,2,4-oxadiazol-3-yl)-2-methoxy-N-(methylsulfonyl)benzamide]",26
